In ChEMBL document CHEMBL4831545, “Hormesis Effect of Berberine against Klebsiella pneumoniae Is Mediated by Up-Regulation of the Efflux Pump KmrA” (J Nat Prod, 2021):

Legend:
[1] = system: Klebsiella pneumoniae; assay: Hormesis activity against overnight compound-treated Klebsiella pneumoniae deficient in KmrA gene expression assessed as increase in antibiotic MIC by measuring azithromycin MIC at 3 ug/ml incubated for 12 hrs by OD600 based analysis (reference value: 0.78125 ug/ml); format: ADME, organism-based; settings: in vivo, dose 3 µg/ml
[2] = system: Enterobacter cloacae; assay: Hormesis activity against Enterobacter cloacae assessed as increase in antibiotic MIC by measuring ampicillin MIC at 3 ug/ml incubated for 12 hrs by OD600 based analysis (reference value: 25 ug/ml); format: ADME, organism-based; settings: in vivo, dose 3 µg/ml
[3] = system: Enterobacter cloacae; assay: Hormesis activity against Enterobacter cloacae assessed as promotion of bacterial growth by measuring prolonged logarithmic growth phase at 3 to 6 ug/ml measured for 24 hrs by OD600 based analysis; format: organism-based; settings: in vivo, dose 3-6 µg/ml
[4] = system: Klebsiella pneumoniae; assay: Hormesis activity against Klebsiella pneumoniae deficient in KmrA gene expression assessed as increase in antibiotic MIC by measuring hygromycinMIC at 3 ug/ml incubated for 12 hrs by OD600 based analysis (reference value: 12.5 ug/ml); format: ADME, organism-based; settings: in vivo, dose 3 µg/ml
[5] = system: Klebsiella pneumoniae; assay: Hormesis activity against overnight compound-treated Klebsiella pneumoniae deficient in KmrA gene expression assessed as increase in antibiotic MIC by measuring chloramphenicol MIC at 3 ug/ml incubated for 12 hrs by OD600 based analysis (reference value: 6.25 ug/ml); format: ADME, organism-based; settings: in vivo, dose 3 µg/ml
[6] = system: Klebsiella pneumoniae; assay: Hormesis activity against Klebsiella pneumoniae deficient in KmrA gene expression assessed as increase in antibiotic MIC by measuring atreonamMIC at 3 ug/ml incubated for 12 hrs by OD600 based analysis (reference value: 1.5625 ug/ml); format: ADME, organism-based; settings: in vivo, dose 3 µg/ml
[7] = system: Acinetobacter baumannii; assay: Hormesis activity against Acinetobacter baumannii assessed as increase in antibiotic MIC by measuring rifampicin MIC at 3 ug/ml incubated for 12 hrs by OD600 based analysis (reference value: 1.5625 ug/ml); format: ADME, organism-based; settings: in vivo, dose 3 µg/ml
[8] = system: Acinetobacter baumannii; assay: Hormesis activity against overnight-compound treated Acinetobacter baumannii assessed as increase in antibiotic MIC by measuring hygromycinMIC at 3 ug/ml incubated for 12 hrs by OD600 based analysis (reference value: 125 ug/ml); format: ADME, organism-based; settings: in vivo, dose 3 µg/ml
[9] = system: Enterobacter cloacae; assay: Hormesis activity against overnight compound-treated Enterobacter cloacae assessed as increase in antibiotic MIC by measuring atreonamMIC at 3 ug/ml incubated for 12 hrs by OD600 based analysis (reference value: 3.125 ug/ml); format: ADME, organism-based; settings: in vivo, dose 3 µg/ml
[10] = system: Enterobacter cloacae; assay: Hormesis activity against overnight compound-treated Enterobacter cloacae assessed as increase in antibiotic MIC by measuring cefotaxime MIC at 3 ug/ml incubated for 12 hrs by OD600 based analysis (reference value: 1.5625 ug/ml); format: ADME, organism-based; settings: in vivo, dose 3 µg/ml
[11] = system: Klebsiella pneumoniae; assay: Hormesis activity against overnight compound-treated Klebsiella pneumoniae assessed as increase in antibiotic MIC by measuring cefotaxime MIC at 3 ug/ml incubated for 12 hrs by OD600 based analysis (reference value: 0.39625 ug/ml); format: ADME, organism-based; settings: in vivo, dose 3 µg/ml
[12] = system: Klebsiella pneumoniae; assay: Hormesis activity against Klebsiella pneumoniae assessed as increase in antibiotic MIC by measuring azithromycin MIC at 3 ug/ml incubated for 12 hrs by OD600 based analysis (reference value: 1.5625 ug/ml); format: ADME, organism-based; settings: in vivo, dose 3 µg/ml
[13] = system: Klebsiella pneumoniae; assay: Hormesis activity against Klebsiella pneumonia assessed as promotion of bacterial growth by measuring prolonged logarithmic growth phase at 3 to 6 ug/ml measured for 24 hrs in presence of 1 ug/ml tetracycline by OD600 based analysis; format: organism-based; settings: in vivo, dose 3-6 µg/ml
[14] = system: Enterobacter cloacae; assay: Hormesis activity against overnight compound-treated Enterobacter cloacae assessed as increase in antibiotic MIC by measuring ciprofloxacin MIC at 3 ug/ml incubated for 12 hrs by OD600 based analysis (reference value: 0.0390625 ug/ml); format: ADME, organism-based; settings: in vivo, dose 3 µg/ml
[15] = system: Acinetobacter baumannii; assay: Hormesis activity against Acinetobacter baumannii assessed as increase in antibiotic MIC by measuring streptomycin MIC at 3 ug/ml incubated for 12 hrs by OD600 based analysis (reference value: 400 ug/ml); format: ADME, organism-based; settings: in vivo, dose 3 µg/ml
[16] = system: Klebsiella pneumoniae; assay: Hormesis activity against overnight compound-treated Klebsiella pneumoniae assessed as increase in antibiotic MIC by measuring hygromycinMIC at 3 ug/ml incubated for 12 hrs by OD600 based analysis (reference value: 12.5 ug/ml); format: ADME, organism-based; settings: in vivo, dose 3 µg/ml
[17] = system: Klebsiella pneumoniae; assay: Hormesis activity against Klebsiella pneumonia assessed as promotion of bacterial growth at 3 to 50 ug/ml measured for 24 hrs in presence of 4 ug/ml tetracycline by OD600 based analysis; format: organism-based; settings: in vivo, dose 3-50 µg/ml
[18] = system: Enterobacter cloacae; assay: Hormesis activity against overnight compound-treated Enterobacter cloacae assessed as increase in antibiotic MIC by measuring streptomycin MIC at 3 ug/ml incubated for 12 hrs by OD600 based analysis (reference value: 12.5 ug/ml); format: ADME, organism-based; settings: in vivo, dose 3 µg/ml
[19] = system: Klebsiella pneumoniae; assay: Hormesis activity against Klebsiella pneumoniae assessed as increase in antibiotic MIC by measuring meropenem MIC at 3 ug/ml incubated for 12 hrs by OD600 based analysis (reference value: 0.39625 ug/ml); format: ADME, organism-based; settings: in vivo, dose 3 µg/ml
[20] = system: Klebsiella pneumoniae; assay: Hormesis activity against Klebsiella pneumoniae assessed as increase in antibiotic MIC by measuring tetracycline MIC at 3 ug/ml incubated for 12 hrs by OD600 based analysis (reference value: 6 ug/ml); format: ADME, organism-based; settings: in vivo, dose 3 µg/ml
[21] = system: Enterobacter cloacae; assay: Hormesis activity against Enterobacter cloacae assessed as increase in antibiotic MIC by measuring streptomycin MIC at 3 ug/ml incubated for 12 hrs by OD600 based analysis (reference value: 12.5 ug/ml); format: ADME, organism-based; settings: in vivo, dose 3 µg/ml
[22] = system: Klebsiella pneumoniae; assay: Hormesis activity against Klebsiella pneumonia assessed as promotion of delayed bacterial growth at 25 to 50 ug/ml measured for 24 hrs in presence of 1 ug/ml tetracycline by OD600 based analysis; format: organism-based; settings: in vivo, dose 25-50 µg/ml
[23] = system: Klebsiella pneumoniae; assay: Hormesis activity against Klebsiella pneumoniae deficient in KmrA gene expression assessed as increase in antibiotic MIC by measuring rifampicin MIC at 3 ug/ml incubated for 12 hrs by OD600 based analysis (reference value: 25 ug/ml); format: ADME, organism-based; settings: in vivo, dose 3 µg/ml
[24] = system: Acinetobacter baumannii; assay: Hormesis activity against overnight-compound treated Acinetobacter baumannii assessed as increase in antibiotic MIC by measuring chloramphenicol MIC at 3 ug/ml incubated for 12 hrs by OD600 based analysis (reference value: 6.25 ug/ml); format: ADME, organism-based; settings: in vivo, dose 3 µg/ml
[25] = system: Enterobacter cloacae; assay: Hormesis activity against Enterobacter cloacae assessed as promotion of bacterial growth up to 25 ug/ml measured for 24 hrs in presence of 8 ug/ml tetracycline by OD600 based analysis; format: organism-based; settings: in vivo, dose <=25 µg/ml
[26] = system: Enterobacter cloacae; assay: Hormesis activity against Enterobacter cloacae assessed as increase in antibiotic MIC by measuring atreonamMIC at 3 ug/ml incubated for 12 hrs by OD600 based analysis (reference value: 3.125 ug/ml); format: ADME, organism-based; settings: in vivo, dose 3 µg/ml
[27] = system: Klebsiella pneumoniae; assay: Hormesis activity against Klebsiella pneumoniae assessed as promotion of bacterial growth at 3 to 6 ug/ml measured for 24 hrs in presence of efflux pump inhibitor, CCCP and 1 to 2 ug/ml tetracycline by OD600 based analysis; format: ADME, organism-based; settings: in vivo, dose 3-6 µg/ml
[28] = system: Klebsiella pneumoniae; assay: Hormesis activity against overnight compound-treated Klebsiella pneumoniae assessed as increase in antibiotic MIC by measuring ampicillin MIC at 3 ug/ml incubated for 12 hrs by OD600 based analysis (reference value: 12.5 ug/ml); format: ADME, organism-based; settings: in vivo, dose 3 µg/ml
[29] = system: Enterobacter cloacae; assay: Hormesis activity against Enterobacter cloacae assessed as increase in antibiotic MIC by measuring azithromycin MIC at 3 ug/ml incubated for 12 hrs by OD600 based analysis (reference value: 6.25 ug/ml); format: ADME, organism-based; settings: in vivo, dose 3 µg/ml

Question: What does the source list for COc1ccc2cc3[n+](cc2c1OC)CCc1cc2c(cc1-3)OCO2 [BERBERINE]?
Answer: MIC [1]: 1.5625 µg/mL; MIC [2]: 25 µg/mL; Activity [3]: Toxic; MIC [4]: 12.5 µg/mL; MIC [5]: 6.25 µg/mL; MIC [6]: 1.5625 µg/mL; MIC [7]: 3.125 µg/mL; MIC [8]: 250 µg/mL; MIC [9]: 3.125 µg/mL; MIC [10]: 3.125 µg/mL; MIC [11]: 0.3962 µg/mL; MIC [12]: 3.125 µg/mL; Activity [13]: Toxic; MIC [14]: 0.1562 µg/mL; MIC [15]: 400 µg/mL; MIC [16]: 12.5 µg/mL; Activity [17]: Toxic; MIC [18]: 25 µg/mL; MIC [19]: 0.3962 µg/mL; MIC [20]: 6 µg/mL; MIC [21]: 12.5 µg/mL; Activity [22]: Non-Toxic; MIC [23]: 25 µg/mL; MIC [24]: 6.25 µg/mL; Activity [25]: Toxic; MIC [26]: 3.125 µg/mL; Activity [27]: Non-Toxic; MIC [28]: 12.5 µg/mL; MIC [29]: 6.25 µg/mL
